Measured values published in US20110039762A1, “TARGETED ANTIMICROBIAL MOIETIES” (C3 JIAN, INC., priority 2009, published 2011).
“Also recorded” adds a separate entry of the source. Ends that are not written are not given here.

Assays:
E. coli = experiment: Kill or inhibit growth/proliferation; morphology, biofilm and growth disruption (Tables 5, 6); type: cell-based, Escherichia coli; set-up: key: A: Peptide aggregates; B: Less hyphal formation; Clumps; Diffuse clumps and small polyps; F: Diffuse growth; H: Thin; I: Growth inhibition; Microcolony formation; Rippled; Small polyps; Thick; W: Halo formation on top, microlonies on bottom; note: test concentration or dose not given here
S. epidermidis = experiment: as above; type: cell-based, Staphylococcus epidermidis; set-up: key: A: Peptide aggregates; B: Less hyphal formation; Clumps; Diffuse clumps and small polyps; F: Diffuse growth; H: Thin; I: Growth inhibition; Microcolony formation; Rippled; Small polyps; Thick; W: Halo formation on top, microlonies on bottom
microorganisms = experiment: Peptides having multiple activities (targeting/binding, antimicrobial, growth or phenotype altering)
Source text: In certain embodiments, peptides described herein can have multiple activities. Thus for example, a peptide can have both binding/targeting activity and antimicrobial activity. Such peptides can be used, e.g., in a chimeric construct, for any or all of these properties. Thus, for example, a peptide designated “B” in Table 8 can be used as a targeting peptide. If it is also designated G or M it can also be used for antimicrobial activity.

MRSA = experiment: Kill or inhibit growth/proliferation; morphology, biofilm and growth disruption (Tables 5, 6); type: cell-based, Methicillin-resistant Staphylococcus aureus; set-up: key: A: Peptide aggregates; B: Less hyphal formation; Clumps; Diffuse clumps and small polyps; F: Diffuse growth; H: Thin; I: Growth inhibition; Microcolony formation; Rippled; Small polyps; Thick; W: Halo formation on top, microlonies on bottom; note: test concentration or dose not given here
S. pneumoniae = experiment: as above; type: cell-based, Streptococcus pneumoniae; set-up: key: A: Peptide aggregates; B: Less hyphal formation; Clumps; Diffuse clumps and small polyps; F: Diffuse growth; H: Thin; I: Growth inhibition; Microcolony formation; Rippled; Small polyps; Thick; W: Halo formation on top, microlonies on bottom; note: test concentration or dose not given here
E. faecalis = experiment: as above; type: cell-based, Enterococcus faecalis; set-up: key: A: Peptide aggregates; B: Less hyphal formation; Clumps; Diffuse clumps and small polyps; F: Diffuse growth; H: Thin; I: Growth inhibition; Microcolony formation; Rippled; Small polyps; Thick; W: Halo formation on top, microlonies on bottom; note: test concentration or dose not given here
[1] = test system: microorganisms (e.g., bacteria, yeasts, fungi); experiment: Targeting peptide binding to target microorganisms (Table 3); settings: microorganism(s) the targeting peptide binds; peptide binding conducted in aqueous buffers varied by peptide solubility, preferably 1x PBS
Throughout, for Organism, effect: test concentration or dose not given here.

Row | Substance | Organism, effect (E. coli) | Organism, effect (S. epidermidis) | Activities (microorganisms) | Organism, effect (MRSA) | Organism, effect (S. pneumoniae) | Organism, effect (E. faecalis) | Target(s) [1]
1 | PF-178: peptide having multiple activities (EVYSSPTNNVAITVQNN; Peptide with targeting and/or antimicrobial activity) | E. coli (C) | S. epidermidis (D) | G B | MRSA (M) | S. pneumoniae (D) | – | –
2 | PF-347: peptide having multiple activities (GIFTGVTVVVSLKHC; Peptide with targeting and/or antimicrobial activity) | E. coli (C) | S. epidermidis (C) | G B | MRSA (C) | – | E. faecalis (C) | –
3 | PF-374: peptide having multiple activities (chain 1 HLFFVKGMFILCQKNQINDE; chain 2 HLFFVKGMFILCQKNQINDE; Peptide with targeting and/or antimicrobial activity) | E. coli (C) | S. epidermidis (C) | G B | MRSA (M) | – | E. faecalis (C) | –
4 | PF-376: peptide having multiple activities (chain 1 MTVFEALMLAIAFATLIVKISNKNDKK; chain 2 MTVFEALMLAIAFATLIVKISNKNDKK; Peptide with targeting and/or antimicrobial activity) | E. coli (C) | S. epidermidis (C) | G B | MRSA (C) | – | E. faecalis (C) | –
5 | PF-379: peptide having multiple activities (chain 1 VFVVLFIIYLASKLLTKLFPIKK; chain 2 VFVVLFIIYLASKLLTKLFPIKK; Peptide with targeting and/or antimicrobial activity) | E. coli (C) | S. epidermidis (C) | G B | MRSA (C) | – | E. faecalis (C) | –
6 | PF-386: peptide having multiple activities (chain 1 FTLTLITTIVAILNYKDKKK; chain 2 FTLTLITTIVAILNYKDKKK; Peptide with targeting and/or antimicrobial activity) | E. coli (C) | S. epidermidis (C) | G B | MRSA (C) | – | E. faecalis (C) | –
7 | PF-398: peptide having multiple activities (ILVVLAGILLVVLSYVGISKFKMNC; Peptide with targeting and/or antimicrobial activity) | E. coli (C) | S. epidermidis (C) | G B | MRSA (C) | – | E. faecalis (C) | –
8 | PF-399: peptide having multiple activities (FPIISALLGAIICIAIYSFIVNRKA; Peptide with targeting and/or antimicrobial activity) | E. coli (C) | S. epidermidis (C) | G B | MRSA (C) | – | E. faecalis (C) | –
9 | PF-410: peptide having multiple activities (FALELIALCRNLFIVYFP; Peptide with targeting and/or antimicrobial activity) | E. coli (S) | S. epidermidis (C) | G B | MRSA (M) | – | E. faecalis (C) | –
10 | PF-427: peptide having multiple activities (YVLEYHGLRATQDVDAFMAL; Peptide with targeting and/or antimicrobial activity) | E. coli (C) | – | G B | MRSA (C) | S. pneumoniae (R) | E. faecalis (C) | M. luteus; also recorded: P. aeruginosa; also recorded: C. albicans; also recorded: C. jejuni
11 | PF-453: peptide having multiple activities (chain 1 IIQDIAHAFGY; chain 2 IIQDIAHAFGY; Peptide with targeting and/or antimicrobial activity) | E. coli (C) | S. epidermidis (C) | G B | MRSA (C) | S. pneumoniae (C) | – | M. luteus; also recorded: E. coli; also recorded: P. aeruginosa; also recorded: S. pneumoniae; also recorded: E. faecalis; also recorded: C. jeikeium; also recorded: C. jejuni
12 | PF-478: peptide having multiple activities (chain 1 HLFILKSHLKPFPPFRYTYD; chain 2 HLFILKSHLKPFPPFRYTYD; Peptide with targeting and/or antimicrobial activity) | E. coli (C) | S. epidermidis (C) | G B | MRSA (H) | S. pneumoniae (C) | – | –
13 | PF-514: peptide having multiple activities (chain 1 QRFYKLFYHIDLTNEQALKLFQVK; chain 2 QRFYKLFYHIDLTNEQALKLFQVK; Peptide with targeting and/or antimicrobial activity) | E. coli (R) | S. epidermidis (C) | G B | – | S. pneumoniae (M) | E. faecalis (C) | S. epidermidis and E. coli and P. aeruginosa and C. albicans and MRSA and S. pneumoniae and E. faecalis and C. jeikeium
14 | PF-519: peptide having multiple activities (chain 1 YLVYSGVLATAAAF-NH2; chain 2 YLVYSGVLATAAAF-NH2) | E. coli (R) | – | G B | MRSA (C) | S. pneumoniae (S) | E. faecalis (C) | M. luteus; also recorded: E. faecalis; also recorded: C. jeikeium
15 | PF-532 (KFIYKYKLSFIIYKILIQTLTMELNK; Peptide with targeting and/or antimicrobial activity) | E. coli (C) | – | – | MRSA (C) | S. pneumoniae (C) | E. faecalis (C) | –
16 | PF-540: peptide having multiple activities (chain 1 KSILILIKVIFIGQTTIIL; chain 2 KSILILIKVIFIGQTTIIL; Peptide with targeting and/or antimicrobial activity) | E. coli (R) | S. epidermidis (H) | G B | MRSA (H) | S. pneumoniae (R) | – | C. albicans
17 | PF-619: peptide having multiple activities (WSRVPGHSDTGWKVWHRW; Peptide with targeting and/or antimicrobial activity) | E. coli (C) | S. epidermidis (M) | G B | MRSA (M) | S. pneumoniae (C) | – | –
